Laboratory results published in patent US20080255169A1 (priority 2004, published 2008).
pEC50: −log10 of the molar value. Where two headings read alike, the source gives them in different places.

Tests used:
[1] = target: α2β1 integrin (Homo sapiens, UniProt P05556+P17301); assay: Cell adhesion assay; assay type: cell-based; details: for Emax: concentration not given, read-out: Emax in cell adhesion assay; for pEC50: read-out: EC50 in cell adhesion assay
[2] = test system: PC-3 cells; assay: Cell invasion assay: invasion of PC-3 cells through Matrigel; assay type: cell-based; details: Homo sapiens, 72 hours
Source text: The overexpression regulates cell adhesion and migration to and invasion through the extracellular matrix. By blocking the interaction between extracellular matrix components like collagen and α2β1 it is possible to block cancer cell migration and invasion in vitro. Prostate cancer cells (PC-3) expressing α2β1 endogenously were used to test the in vitro anticancer potential of the inhibitors of the present invention.
Invasion of PC-3 cells (CRL-1435, ATCC) through Matrigel was studied using BD Biocoat invasion inserts (BD Biosciences). Inserts were stored at −20° C. Before the experiments inserts were allowed to adjust to the room temperature. 500 μl of serum free media (Ham's F12K medium, 2 mM L-glutamine, 1.5 g/l sodium bicarbonate) was added into the inserts and allowed to rehydrate at 37° C. in cell incubator for two hours. The remaining media was aspirated. PC-3 cells were detached, pelleted and suspended into serum free media (50 000 cells/500 μl). 300 μl of cell suspension was added into the insert in the absence (control) or presence of the inhibitor according to the pre-sent invention. Inserts were placed on the 24-well plates; each well containing 700 μl of cell culture media with 3% of fetal bovine serum as chemo-attractant. Cells were allowed to invade for 72 hours at 37° C. in cell incubator. Inserts were washed with 700 μl PBS, and fixed with 4% paraformaldehyde for 10 minutes. Paraformaldehyde was aspirated and cells were washed with 700 μl of PBS and inserts were stained by incubation with hematoxylin for 1 minute. The stain was removed by washing the inserts with 700 μl of PBS. Inserts were allowed to dry. Fixed invaded cells were calculated under the microscope. Invasion % was calculated as a comparison to the control.
Cell invasion assay is used as an in vitro cancer metastatis model. […] Some structures inhibit invasion even with submicromolar concentrations. […] In FIG. 2, the dose response of compound 161 in invasion assay is shown. Compound 161 gave the best EC50 value (0.3 μM) in invasion assay. Invasion assay was done with human prostata cancer cell line, PC-3.

[3] = read-out: EC50 in invasion assay

α2β1 integrin, sequence (P17301 30-1181): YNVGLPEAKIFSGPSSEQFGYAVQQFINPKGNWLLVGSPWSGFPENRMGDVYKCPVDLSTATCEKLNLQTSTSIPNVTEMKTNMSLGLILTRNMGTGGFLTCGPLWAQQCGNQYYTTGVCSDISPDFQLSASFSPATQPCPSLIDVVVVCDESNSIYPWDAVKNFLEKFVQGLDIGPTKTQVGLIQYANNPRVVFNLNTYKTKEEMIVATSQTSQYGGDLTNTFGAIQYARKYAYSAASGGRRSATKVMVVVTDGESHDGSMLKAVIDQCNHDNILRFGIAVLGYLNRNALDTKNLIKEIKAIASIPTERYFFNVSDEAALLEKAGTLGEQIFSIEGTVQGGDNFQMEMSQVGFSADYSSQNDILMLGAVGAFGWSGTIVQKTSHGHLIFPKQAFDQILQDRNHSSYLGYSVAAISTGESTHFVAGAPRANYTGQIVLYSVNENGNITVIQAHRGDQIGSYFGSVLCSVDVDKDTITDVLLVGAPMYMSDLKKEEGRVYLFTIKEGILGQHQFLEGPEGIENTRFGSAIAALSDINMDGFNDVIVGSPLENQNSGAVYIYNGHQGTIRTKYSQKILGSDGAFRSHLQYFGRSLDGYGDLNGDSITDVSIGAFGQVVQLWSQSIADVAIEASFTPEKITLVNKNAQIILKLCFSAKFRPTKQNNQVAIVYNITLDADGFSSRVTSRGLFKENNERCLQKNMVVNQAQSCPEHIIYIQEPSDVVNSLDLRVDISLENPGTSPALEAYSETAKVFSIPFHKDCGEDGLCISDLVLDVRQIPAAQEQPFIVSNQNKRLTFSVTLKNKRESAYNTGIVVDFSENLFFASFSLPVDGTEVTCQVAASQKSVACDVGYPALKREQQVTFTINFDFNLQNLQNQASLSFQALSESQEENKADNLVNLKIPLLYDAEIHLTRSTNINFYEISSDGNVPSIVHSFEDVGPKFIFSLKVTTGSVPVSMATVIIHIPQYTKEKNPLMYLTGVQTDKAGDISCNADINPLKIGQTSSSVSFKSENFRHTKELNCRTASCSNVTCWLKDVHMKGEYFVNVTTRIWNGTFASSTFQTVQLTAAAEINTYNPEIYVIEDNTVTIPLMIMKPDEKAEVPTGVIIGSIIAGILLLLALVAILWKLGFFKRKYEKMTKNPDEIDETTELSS
α2β1 integrin, sequence (P05556 21-798 partner): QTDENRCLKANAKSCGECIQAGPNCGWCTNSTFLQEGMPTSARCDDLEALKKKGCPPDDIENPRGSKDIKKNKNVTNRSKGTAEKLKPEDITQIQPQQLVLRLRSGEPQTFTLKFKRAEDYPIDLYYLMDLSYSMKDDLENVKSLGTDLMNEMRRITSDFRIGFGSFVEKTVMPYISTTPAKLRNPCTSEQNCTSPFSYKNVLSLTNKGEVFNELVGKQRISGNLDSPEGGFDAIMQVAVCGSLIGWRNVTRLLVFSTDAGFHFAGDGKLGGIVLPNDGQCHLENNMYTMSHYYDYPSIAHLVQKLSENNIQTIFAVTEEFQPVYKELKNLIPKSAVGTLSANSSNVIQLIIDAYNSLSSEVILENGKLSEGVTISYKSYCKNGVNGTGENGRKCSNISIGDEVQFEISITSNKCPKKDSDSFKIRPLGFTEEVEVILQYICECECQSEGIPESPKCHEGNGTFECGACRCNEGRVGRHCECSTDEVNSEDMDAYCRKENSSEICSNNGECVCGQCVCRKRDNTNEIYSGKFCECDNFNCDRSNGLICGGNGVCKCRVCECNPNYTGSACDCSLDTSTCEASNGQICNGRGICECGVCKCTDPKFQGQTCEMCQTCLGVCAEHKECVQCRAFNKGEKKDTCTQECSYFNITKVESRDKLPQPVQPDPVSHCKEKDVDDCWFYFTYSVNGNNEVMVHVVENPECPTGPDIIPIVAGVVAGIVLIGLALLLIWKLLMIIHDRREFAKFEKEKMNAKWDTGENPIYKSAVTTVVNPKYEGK

Emax [1] [%] | pEC50 [1] | Structure (SMILES) | further results
82 | 4.47 | O=S(=O)(Nc1ccc2cc[nH]c2c1)c1ccc(Cl)cc1Cl [Compound 161, 2,4-dichloro-N-(1H-indol-6-yl)-benzenesulfonamide] | pEC50 ([2]; dose response FIG. 2, read-out: EC50 value in invasion assay): 6.52; pEC50 [2, 3]: ≥ 6.00
66 | 4.82 | Cc1cc(F)ccc1-c1cccc(S(=O)(=O)Nc2ccc(N(C)C)cc2)c1 [Compound 222, N-[4-(dimethylamino)phenyl]-4′-fluoro-2′-methyl-1,1′-biphenyl-3-sulfonamide] | pEC50 [2, 3]: ≥ 6.00
63 | 4.64 | Cc1cc2c(n1-c1ccc(NS(=O)(=O)c3ccc(C(F)(F)F)cc3Cl)cc1)CC(C)(C)CC2=O [Compound 283, 2-chloro-4-trifluoromethyl-N-[4-(2,6,6-trimethyl-4-oxo-4,5,-6,7-tetrahydro-indol-1-yl)-phenyl]-benzenesulfonamide] | –
70 | 5.22 | Cc1cc2cc(N(C)S(=O)(=O)c3ccc(Cl)cc3Cl)ccc2n1C [Compound 242, 2,4-dichloro-N-(1,2-dimethyl-1H-indol-5-yl)-N-methyl-benzenesulfonamide] | pEC50 [2, 3]: ≥ 6.00
55 | 5.20 | Cc1cc(F)ccc1-c1cccc(S(=O)(=O)N(C)c2ccc(N(C)C)cc2)c1 [Compound 321] | –
– | 4.49 | O=S(=O)(Nc1ccc(-n2cccc2)cc1)c1ccc(Cl)cc1Cl [Compound 163, 2,4-dichloro-N-(4-pyrrol-1-yl-phenyl)-benzenesulfonamide] | Emax at 50 µM [1]: 66%
– | 5.15 | CN(C)c1ccc(N(C)S(=O)(=O)c2cccc(-c3ccc(F)cc3)c2)cc1 [Compound 282, 4′-fluoro-biphenyl-3-sulfonic acid (4-dimethylaminophenyl)-methylamide] | Emax at 50 µM [1]: 59%
56 | 4.54 | Cc1nc2cc(N(C)S(=O)(=O)c3cccc(-c4ccc(F)cc4)c3)ccc2o1 [Compound 295] | –
58 | 4.60 | Cc1cc2cc(NS(=O)(=O)c3ccc(Cl)cc3Cl)ccc2[nH]1 [Compound 131, 2,4-dichloro-N-(2-methyl-1H-indol-5-yl)-benzenesulfonamide] | pEC50 [2, 3]: ≥ 6.00
77 | 4.60 | Cc1cc(C)nc(Nc2ccc(NS(=O)(=O)c3ccc(Cl)cc3Cl)cc2)n1 [Compound 182] | –
– | 4.60 | Cc1ccc(C)n1-c1ccc(NS(=O)(=O)c2ccc(Cl)cc2Cl)cc1 [Compound 213] | Emax at 50 µM [1]: 71%
90 | 4.40 | CSc1nc2ccc(NS(=O)(=O)c3ccc(Cl)cc3Cl)cc2s1 [Compound 132] | –
– | 4.46 | CC(C)(C)c1cc2cc(NS(=O)(=O)c3ccc(Cl)cc3)ccc2[nH]1 [Compound 173] | Emax at 40 µM [1]: 59%
91 | 4.57 | CN(C)c1ccc(NS(=O)(=O)c2cc(-c3ccc(F)cc3)c(F)cc2F)cc1 [Compound 202] | –
– | 5.00 | CN(C)c1ccc(NS(=O)(=O)c2cc(-c3ccc(F)cc3)c(Cl)s2)cc1 [Compound 316, 5-chloro-4-(4-fluoro-phenyl)-thiophene-2-sulfonic acid (4-dimethylamino-phenyl)-amide] | Emax at 50 µM [1]: 87%
60 | 4.31 | Cc1nc2ccc(NS(=O)(=O)c3cccc(Br)c3)cc2s1 [Compound 195] | –
45 | 5.00 | CN(c1ccc2c(c1)c1ccccc1n2C)S(=O)(=O)c1ccc(Cl)cc1Cl [Compound 320] | –
57 | 4.62 | Cc1cc(C)nc(N(C)c2ccc(N(C)S(=O)(=O)c3ccc(Cl)cc3Cl)cc2)n1 [Compound 302] | –
64 | 4.72 | Cc1cc2c(n1-c1ccc(NS(=O)(=O)c3ccc(Cl)c(Cl)c3)cc1)CC(C)(C)CC2=O [Compound 269] | –
78 | 4.33 | CN(C)c1ccc(N(C)S(=O)(=O)c2cccc(Br)c2)cc1 [Compound 281] | pEC50 [2, 3]: ≥ 6.00
40 | 5.00 | O=S(=O)(Nc1ccc2[nH]ccc2c1)c1ccc(Cl)cc1Cl [Compound 134, 2,4-dichloro-N-(1H-indol-5-yl)-benzenesulfonamide] | –

Continued, molecule first:

Structure (SMILES) | Emax [1] [%] | pEC50 [1] | further results
Cc1cc(C)nc(Nc2ccc(NS(=O)(=O)c3cccc(Br)c3)cc2)n1 [Compound 183] | 81 | 4.55 | pEC50 [2, 3]: ≥ 6.00
CC(=O)c1ccc(-c2cccc(S(=O)(=O)Nc3ccc(N(C)C)cc3)c2)s1 [Compound 239, 3-(5-acetylthien-2-yl)-N-[4-(dimethylamino)phenyl]benzenesulfonamide] | – | 4.62 | Emax at 50 µM [1]: 64%; pEC50 [2, 3]: ≥ 6.00
Cc1cc2c(n1-c1ccc(NS(=O)(=O)c3ccc(-c4cnco4)s3)cc1)CC(C)(C)CC2=O [Compound 258] | 66 | 4.40 | –
CC(C)(C)c1cc2cc(NS(=O)(=O)c3cccc(-c4ccc(F)cc4)c3)ccc2[nH]1 [Compound 291] | 50 | 4.49 | –
Cc1cc2cc(NS(=O)(=O)c3cccc(C(F)(F)F)c3)ccc2[nH]1 [Compound 230] | – | < 4.52 | Emax at 50 µM [1]: 76%
CN(C)c1ccc(NS(=O)(=O)c2ccc(-c3ccc(F)cc3)s2)cc1 [Compound 306] | – | 4.62 | Emax at 50 µM [1]: 67%
O=S(=O)(Nc1ccc2ncsc2c1)c1cccc(Br)c1 [Compound 139, N-benzolthiazol-6-yl-3-bromo-benzenesulfonamide] | 75 | 4.34 | –
Cc1cc2cc(NS(=O)(=O)c3cccc(Br)c3)ccc2[nH]1 [Compound 197, 3-bromo-N-(2-methyl-1H-indol-5-yl)-benzenesulfonamide] | 74 | – | –
COc1ccc(-c2cnn(-c3ccc(NS(=O)(=O)c4ccc(Cl)cc4)cc3)c2)cc1 [Compound 176] | – | 4.77 | Emax at 50 µM [1]: 59%; pEC50 [2, 3]: ≥ 6.00
Cn1ccc2ccc(NS(=O)(=O)c3cccc(-c4ccc(F)cc4)c3)cc21 [Compound 284, 4′-fluoro-biphenyl-3-sulfonic acid (1-methyl-1H-indol-6-yl)-amide] | 69 | ~4.52 | –
COc1ccc(-c2cccc(S(=O)(=O)Nc3ccc(N(C)C)cc3)c2)cc1OC [Compound 142, [4-(3′,4′-dimethoxy-biphenyl-3-sulfonylamino)-phenyl]-dimethylammonium; chloride] | 77 | 4.70 | –
O=S(=O)(Nc1ccc(Nc2nc(Cl)nc(Cl)c2Cl)cc1)c1ccc(Cl)cc1 [Compound 170] | – | 4.62 | Emax at 40 µM [1]: 85%
Cc1cc2cc(NS(=O)(=O)c3ccc4oc(=O)ccc4c3)ccc2[nH]1 [Compound 234] | 85 | 4.46 | –
Cc1nc2cc(NS(=O)(=O)c3cccc(-c4ccc(F)cc4)c3)ccc2o1 [Compound 190, 4′-fluoro-biphenyl-3-sulfonic acid (2-methyl-benzooxazol-5-yl)-amide] | 76 | 4.60 | –
O=S(=O)(Nc1ccc(-n2ccnc2)cc1)c1cccc(-c2ccc(F)cc2)c1 [Compound 300] | 50 | 4.35 | –
Cc1nc2cc(NS(=O)(=O)c3cccc(-c4ccc(F)cc4)c3)ccc2s1 [Compound 188, 4′-fluoro-biphenyl-3-sulfonic acid (2-methyl-benzothiazol-5-yl)-amide] | 81 | 4.44 | –
Cn1ccc2cc(NS(=O)(=O)c3cccc(-c4ccc(F)cc4)c3)ccc21 [Compound 285, 4′-fluoro-biphenyl-3-sulfonic acid (1-methyl-1H-indol-5-yl)-amide] | – | 4.70 | Emax at 50 µM [1]: 60%; pEC50 [2, 3]: ≥ 6.00
Cc1cc(C)n(-c2ccc(NS(=O)(=O)c3cccc(-c4ccc(F)cc4)c3)cc2)n1 [Compound 298] | 79 | 4.48 | pEC50 [2, 3]: ≥ 6.00
CN(C)c1ccc(NS(=O)(=O)c2cccc(-c3ccc(F)cc3)c2)cc1 [Compound 119, N-[4-(dimethylamino)phenyl]-4′-fluoro-1,1′-biphenyl-3-sulphonamide] | 70 | 5.52 | melting point: 158 to 160 °C
COc1cc(OC)nc(-c2ccc(NS(=O)(=O)c3cccc(-c4ccc(F)cc4)c3)cc2)n1 [Compound 235] | 85 | 4.70 | –
COc1ccc(NS(=O)(=O)c2cccc(-c3ccc(F)cc3)c2)cc1 [Compound 250] | 89 | 4.51 | –
O=S(=O)(Nc1ccc2c(c1)OCO2)c1cccc(-c2ccc(F)cc2)c1 [Compound 186, 4′-fluoro-biphenyl-3-sulfonic acid benzo[1,3]dioxol-5-yl-amide] | 91 | 4.72 | –
